In patent publication US20260001875A1, “AMINOPYRIMIDINYL DERIVATIVES FOR THE TREATMENT OF PARKINSON'S DISEASE” (UNIVERSITY OF DUNDEE, priority 2022, published 2026):
“Also recorded” adds a separate entry of the source.

Target: LRRK2 (Homo sapiens, UniProt Q5S007)
Test: LRRK2 degradation in PBMC
Type: cell-based
Design: endogenous in cells; host or cells: human peripheral blood mononuclear cells (PBMC)
Description: PBMC cells were separated from human blood following existing protocol (dx.doi.org/10.17504/protocols.io.bnhxmb7n) and pelleted by centrifugation at 1000 g for 2 min. The supernatant was discarded and the PBMC pellet was resuspended in PBS containing 2% FBS for washing. The suspension was centrifuged at 1000 g for 2 min again and the PBMC pellet was resuspended in RPMI-1640 (Gibco) media supplemented with 10% FBS. The cells were then seeded into 6-well plates and treated with testing compounds at indicated concentrations and time period. After treatment, the cells were collected into 2-ml Eppendorf tube and centrifuged at 500 g for 2 min to pellet the cells, the supernatant was discarded, and the pellet was resuspended in 1 ml PBS and centrifuged at 500 g for 2 min again. The PBMC pellet was lysed with 60 μL of lysis buffer containing 50 mM Tris-HCl, pH 7.5, 1% (v/v) Triton X-100, 1 mM EGTA, 1 mM sodium orthovanadate, 50 mM NaF, 0.1% (v/v) 2-mercaptoethanol, 10 mM 2-glycerophosphate, 5 mM sodium pyrophosphate, 0.1 μg/ml mycrocystin-LR (Enzo Life Sciences), 270 mM sucrose, 0.5 mM DIFP (Sigma, Cat #D0879) in addition to Complete EDTA-free protease inhibitor cocktail (Sigma-Aldrich Cat #11836170001). DIFP is highly toxic and must be prepared in a fume hood to a stock solution of 0.5 M in isopropanol. The lysed cells were then centrifuged at 1500 g for 15 min at 0° C. The supernatants were collected for analysis by quantitative immunoblotting. For long term storage, the supernatant was flash frozen and stored at −80° C. Protein concentrations of cell lysates were determined using Pierce™ BCA Protein Assay Kit (ThermoFisher).
Cell lysates containing a quarter of a volume of 4× NuPAGE LDS sample buffer (NP0007) supplemented with 5% β-mercaptoethanol, were heated at 95° C. for 5 minutes. 15 to 20 μg of samples were loaded onto pre-cast 4-12% Bis-Tris midi 20W or 26W gels (Thermofisher Scientific®, Cat #WG1402BOX or WG1403BOX) and resolved at 130 V for 2 hours with NuPAGE MOPS SDS running buffer (Thermofisher Scientific® Cat #NP0001-02). Proteins were electrophoretically transferred onto a 0.45 μm nitrocellulose membrane (GE Healthcare, Amersham Protran® Supported 0.45 mm NC) at 90 V for 90 min on ice in transfer buffer (48 mM Tris base and 39 mM glycine supplemented with 20% methanol). The transferred membrane was blocked with 5% (w/v) skim milk powder dissolved in tris-buffered saline with tween (TBS-T) (50 mM Tris base, 150 mM sodium chloride (NaCl), 0.1% (v/v) Tween-20) at room temperature for 1 hour. Membranes were washed three times with TBS-T and were incubated in primary antibody overnight at 4° C. Prior to secondary antibody incubation, membranes were washed three times for 15 minutes with TBS-T. The membranes were incubated with secondary antibody for 1 hour at room temperature, protected from light. Thereafter, the membranes were washed with TBS-T three times with a 15-minute incubation for each wash, and protein bands were acquired via near-infrared fluorescent detection using the Odyssey CLx imaging system and quantified using Image Studio software. Graphs were generated using Graphpad Prism version 8 software.
Monoclonal rabbit LRRK2 Ser935 (Cat #UDD2) was purified by MRC PPU Reagents and Services at the University of Dundee and was used at a final concentration of 1 μg/ml. Total LRRK2 (C-terminus) was from Antibodies Inc./Neuromab (Cat #75-253) and was diluted 1:1000. The MJFF monoclonal rabbit Rab10 pThr73, which was characterized previously (Lis et al., Biochem J. 2018 Jan. 2; 475(1):1-22.) was purchased from Abcam Inc. (ab230261) and diluted 1:1000. Mouse monoclonal alpha-tubulin (#3873) was purchased from Cell Signaling Technology and used at 1:1000. The mouse monoclonal anti-Rab10 total antibody was purchased from Nanotools (#0680-100/Rab10-605B11) and was used at a final concentration of 1 μg/ml. Mouse monoclonal Hif-1α was purchased from R&D Systems (Cat #MAB1536) and was diluted 1:1000.

Chain of LRRK2 (Q5S007 whole entry): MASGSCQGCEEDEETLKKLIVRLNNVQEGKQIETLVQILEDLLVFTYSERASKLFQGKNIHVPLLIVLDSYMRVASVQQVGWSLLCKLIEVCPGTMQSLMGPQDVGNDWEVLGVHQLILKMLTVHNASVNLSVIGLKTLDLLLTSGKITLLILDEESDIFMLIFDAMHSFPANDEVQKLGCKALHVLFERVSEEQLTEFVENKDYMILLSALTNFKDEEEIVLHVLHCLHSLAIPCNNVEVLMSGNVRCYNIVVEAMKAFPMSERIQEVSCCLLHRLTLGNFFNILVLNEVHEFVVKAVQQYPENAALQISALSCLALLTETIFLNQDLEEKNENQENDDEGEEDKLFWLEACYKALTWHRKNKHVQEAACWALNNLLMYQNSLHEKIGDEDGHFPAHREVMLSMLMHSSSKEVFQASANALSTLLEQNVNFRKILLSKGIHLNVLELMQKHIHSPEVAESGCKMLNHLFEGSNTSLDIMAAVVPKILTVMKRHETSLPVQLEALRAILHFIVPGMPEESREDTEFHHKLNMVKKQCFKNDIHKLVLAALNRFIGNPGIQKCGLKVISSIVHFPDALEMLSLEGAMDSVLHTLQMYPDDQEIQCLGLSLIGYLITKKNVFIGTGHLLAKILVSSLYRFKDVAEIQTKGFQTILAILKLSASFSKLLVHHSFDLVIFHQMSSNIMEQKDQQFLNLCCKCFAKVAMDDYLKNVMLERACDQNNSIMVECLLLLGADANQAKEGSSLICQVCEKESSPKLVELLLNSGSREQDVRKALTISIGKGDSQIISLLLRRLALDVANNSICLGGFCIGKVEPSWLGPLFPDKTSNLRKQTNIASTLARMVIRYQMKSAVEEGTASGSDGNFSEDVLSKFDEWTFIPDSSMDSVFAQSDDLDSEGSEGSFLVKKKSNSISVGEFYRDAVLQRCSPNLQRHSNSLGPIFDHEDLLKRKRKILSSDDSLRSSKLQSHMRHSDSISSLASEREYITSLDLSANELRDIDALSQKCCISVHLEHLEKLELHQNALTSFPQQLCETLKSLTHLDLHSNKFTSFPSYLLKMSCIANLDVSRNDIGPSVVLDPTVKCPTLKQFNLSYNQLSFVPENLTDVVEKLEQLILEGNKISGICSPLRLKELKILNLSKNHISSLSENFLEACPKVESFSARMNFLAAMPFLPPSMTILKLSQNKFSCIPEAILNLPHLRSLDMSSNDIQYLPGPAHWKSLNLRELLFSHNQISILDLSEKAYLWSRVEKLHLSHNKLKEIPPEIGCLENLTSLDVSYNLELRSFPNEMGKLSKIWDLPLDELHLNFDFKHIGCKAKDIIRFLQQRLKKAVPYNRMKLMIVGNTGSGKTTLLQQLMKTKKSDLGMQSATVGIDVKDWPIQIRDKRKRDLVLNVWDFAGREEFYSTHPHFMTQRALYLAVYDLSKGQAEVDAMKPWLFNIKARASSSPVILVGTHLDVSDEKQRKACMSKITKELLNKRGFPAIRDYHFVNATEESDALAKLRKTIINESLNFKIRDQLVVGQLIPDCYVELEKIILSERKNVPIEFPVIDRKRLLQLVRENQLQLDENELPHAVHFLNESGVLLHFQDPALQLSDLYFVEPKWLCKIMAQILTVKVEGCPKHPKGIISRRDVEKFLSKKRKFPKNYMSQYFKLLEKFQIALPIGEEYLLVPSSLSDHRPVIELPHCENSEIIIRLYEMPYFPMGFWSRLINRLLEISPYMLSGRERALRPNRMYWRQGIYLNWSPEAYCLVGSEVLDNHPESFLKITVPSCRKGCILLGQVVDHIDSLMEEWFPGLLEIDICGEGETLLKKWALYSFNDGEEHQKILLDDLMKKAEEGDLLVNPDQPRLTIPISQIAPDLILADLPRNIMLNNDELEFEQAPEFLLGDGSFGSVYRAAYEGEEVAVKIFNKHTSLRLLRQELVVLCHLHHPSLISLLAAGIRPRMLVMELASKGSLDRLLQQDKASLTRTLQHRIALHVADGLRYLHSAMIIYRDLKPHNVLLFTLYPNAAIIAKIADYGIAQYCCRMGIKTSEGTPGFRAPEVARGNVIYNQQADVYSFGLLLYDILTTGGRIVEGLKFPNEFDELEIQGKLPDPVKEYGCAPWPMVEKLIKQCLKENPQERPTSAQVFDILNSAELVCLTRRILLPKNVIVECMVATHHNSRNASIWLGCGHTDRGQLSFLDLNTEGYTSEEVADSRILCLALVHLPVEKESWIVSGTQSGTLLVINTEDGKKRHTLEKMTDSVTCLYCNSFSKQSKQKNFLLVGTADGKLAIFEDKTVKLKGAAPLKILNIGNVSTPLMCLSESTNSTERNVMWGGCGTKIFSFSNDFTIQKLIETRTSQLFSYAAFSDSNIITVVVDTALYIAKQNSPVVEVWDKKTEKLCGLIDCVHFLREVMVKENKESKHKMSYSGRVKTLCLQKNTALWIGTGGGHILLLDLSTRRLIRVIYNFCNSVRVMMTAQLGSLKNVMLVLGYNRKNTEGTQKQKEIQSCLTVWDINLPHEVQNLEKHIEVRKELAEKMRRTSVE

| SMILES | LRRK2 degradation in PBMC (in words) (4 h treatment) | LRRK2 degradation in PBMC (in words) (24 h treatment) | LRRK2 degradation in PBMC (in words) (time course at 300 nM) | DC50 (4 h treatment) [nM] | DC50 (24 h treatment) [nM] | Dmax of LRRK2 degradation in PBMC (24 h treatment) | T1/2 of LRRK2 degradation in PBMC (time course at 300 nM) [h] |
| --- | --- | --- | --- | --- | --- | --- | --- |
| CNc1nc(Nc2ccc(C(=O)N3CCN(C[C@H]4CC[C@H](CSC(C)(C)[C@H](NC(=O)C5(F)CC5)C(=O)N5C[C@@H](O)CC5C(=O)NCc5ccc(-c6scnc6C)cc5)CC4)CC3)cc2OC)ncc1Cl (stereo partly drawn) [Cis-XL01126, (2S,4S)-1-((R)-3-((((1r,4R)-4-((4-(4-((5-chloro-4-(methylamino)pyrimidin-2-yl)amino)-3-methoxybenzoyl)piperazin-1-yl)methyl)cyclohexyl)methyl)thio)-2-(1-fluorocyclopropane-1-carboxamido)-3-methylbutanoyl)-4-hydroxy-N-(4-(4-methylthiazol-5-yl)benzyl)pyrrolidine-2-carboxamide] | cannot degrade LRRK2 | degraded little LRRK2; also recorded: cannot degrade LRRK2 | cannot degrade LRRK2 |  |  |  |  |
| CNc1nc(Nc2ccc(C(=O)N3CCN(C[C@H]4CC[C@H](CSC(C)(C)[C@H](NC(=O)C5(F)CC5)C(=O)N5C[C@H](O)CC5C(=O)NCc5ccc(-c6scnc6C)cc5)CC4)CC3)cc2OC)ncc1Cl (stereo partly drawn) [XL01126, (2S,4R)-1-((R)-3-((((1R,4R)-4-((4-(4-((5-chloro-4-(methylamino)pyrimidin-2-yl)amino)-3-methoxybenzoyl)piperazin-1-yl)methyl)cyclohexyl)methyl)thio)-2-(1-fluorocyclopropane-1-carboxamido)-3-methylbutanoyl)-4-hydroxy-N-(4-(4-methylthiazol-5-yl)benzyl)pyrrolidine-2-carboxamide] |  |  |  | 72 | 17 | 80-90% | 2.4 |
